Measurements: patent US20230399312A1, “SUBSTITUTED PYRIMIDINES AND METHODS OF USE” (THERAVANCE BIOPHARMA R&D IP, LLC, priority 2020, published 2023)

What was measured:
[1] = target: T1, recombinant human ALK5 (TGF-βR1) protein (Homo sapiens, UniProt P36897); assay: Biochemical ALK5 (TGF-βR1) assay to measure pKi (LANCE Ultra ULight kinase assay); details: apparent pKi, converted from pIC50 by Cheng-Prusoff
T1 construct: purchased Life Technologies PR9075A
T1 sequence (P36897 34-503): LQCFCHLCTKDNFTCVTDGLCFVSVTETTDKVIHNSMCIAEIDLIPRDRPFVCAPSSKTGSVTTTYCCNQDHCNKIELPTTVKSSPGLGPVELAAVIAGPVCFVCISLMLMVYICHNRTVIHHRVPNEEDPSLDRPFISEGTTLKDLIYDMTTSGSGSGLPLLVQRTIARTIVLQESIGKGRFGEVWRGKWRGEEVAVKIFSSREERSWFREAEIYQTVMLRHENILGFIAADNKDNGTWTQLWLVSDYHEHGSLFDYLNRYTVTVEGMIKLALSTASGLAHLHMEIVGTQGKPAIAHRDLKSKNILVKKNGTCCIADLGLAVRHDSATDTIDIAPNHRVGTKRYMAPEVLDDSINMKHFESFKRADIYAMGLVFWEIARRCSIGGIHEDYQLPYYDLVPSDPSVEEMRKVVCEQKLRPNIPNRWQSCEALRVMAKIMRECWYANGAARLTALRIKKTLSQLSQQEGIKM
Procedure, shortened: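 Dose-response series of each compound were preincubated with the kinase for 60 minutes at room temperature. Phosphorylation proceeded for 60 minutes at 37 °C after ATP addition, was quenched with EDTA, and was detected with a europium anti-phospho-Thr1342 antibody by TR-FRET; pKi was calculated from pIC50.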

[2] = test system: TGF-β-stimulated SMAD3 phosphorylation in BEAS-2B cells; assay: Cellular ALK5 potency assay, inhibition of TGF-β stimulated pSMAD3 formation in BEAS-2B cells; format: cell-based; details: Homo sapiens, pSMAD3, TGF-β 10 ng/mL, read-out: BEAS2B pIC50 (converted)
Procedure, shortened: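 Read-out is AlphaLISA detection of phospho-SMAD3 in lysates of BEAS-2B human lung epithelial cells. Cells are exposed to compound for 1 hour, then to 10 ng/mL TGF-β (final) for 30 minutes. Values are pIC50 from concentration–response curves.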

Row | SMILES | Ki [1] | IC50 [2]
1 | Cc1cccc(-c2nccc(Nc3ccnc(Nc4nc(C(=O)OCC5CCNCC5)cs4)n3)n2)n1 [Compound 615, 4-piperidylmethyl 2-[[4-[[2-(6-methyl-2-pyridyl)pyrimidin-4-yl]amino]pyrimidin-2-yl]amino]thiazole-4-carboxylate] | 0.398 to 3.16 nM | 200 to 1260 nM
2 | Cc1cccc(-c2nccc(Nc3ccnc(Nc4cccc(NC(=O)NCC5CNC5)c4)n3)n2)n1 [Compound 477, 1-(azetidin-3-ylmethyl)-3-[3-[[4-[[2-(6-methyl-2-pyridyl)pyrimidin-4-yl]amino]pyrimidin-2-yl]amino]phenyl]urea] | 0.0398 to 0.316 nM | ≤ 20 nM
3 | Cc1cccc(-c2nccc(Nc3ccnc(Nc4cccc(CN5CCNCC5)c4)n3)n2)n1 [Compound 362, N4-[2-(6-methyl-2-pyridyl)pyrimidin-4-yl]-N2-[3-(piperazin-1-ylmethyl)phenyl]pyrimidine-2,4-diamine] | 0.0398 to 0.316 nM | 25.1 to 158 nM
4 | Cc1cccc(-c2nccc(Nc3ccnc(Nc4ccc(CN5CC6CCC(C5)O6)cc4)n3)n2)n1 [Compound 395, N4-[2-(6-methyl-2-pyridyl)pyrimidin-4-yl]-N2-[4-(8-oxa-3-azabicyclo[3.2.1]octan-3-ylmethyl)phenyl]pyrimidine-2,4-diamine] | 0.0398 to 0.316 nM | 25.1 to 158 nM
5 | Cc1cccc(-c2nccc(Nc3ccnc(Nc4nc(CN5CCN[C@@H](CO)C5)cs4)n3)n2)n1 [Compound 329, [(2R)-4-[[2-[[4-[[2-(6-methyl-2-pyridyl)pyrimidin-4-yl]amino]pyrimidin-2-yl]amino]thiazol-4-yl]methyl]piperazin-2-yl]methanol] | 0.398 to 3.16 nM | 25.1 to 158 nM
6 | Cc1cccc(-c2nccc(Nc3ccnc(Nc4csc(C(=O)O[C@@H]5CCNC5)c4)n3)n2)n1 [Compound 543, [(3R)-pyrrolidin-3-yl] 4-[[4-[[2-(6-methyl-2-pyridyl)pyrimidin-4-yl]amino]pyrimidin-2-yl]amino]thiophene-2-carboxylate] | 0.0398 to 0.316 nM | 25.1 to 158 nM

Continued, in another order:

Row | Ki [1] | SMILES | IC50 [2]
7 | 0.0398 to 0.316 nM | Cc1cccc(-c2nccc(Nc3ccnc(Nc4ccc(N5CCCC(C(=O)O[C@@H]6CCNC6)C5)cc4)n3)n2)n1 (stereo partly drawn) [Compound 479, [(3R)-pyrrolidin-3-yl] 1-[4-[[4-[[2-(6-methyl-2-pyridyl)pyrimidin-4-yl]amino]pyrimidin-2-yl]amino]phenyl]piperidine-3-carboxylate] | 25.1 to 158 nM
8 | 0.0398 to 0.316 nM | Cc1cccc(-c2nccc(Nc3ccnc(Nc4ccc(C)c(CN5C[C@@H](C)N[C@@H](C)C5)c4)n3)n2)n1 [Compound 81, N4-[2-(6-methyl-2-pyridyl)pyrimidin-4-yl]-N2-[4-methyl-3-[[rac-(3R,5S)-3,5-dimethylpiperazin-1-yl]methyl]phenyl]pyrimidine-2,4-diamine] | 25.1 to 158 nM
9 | 0.0398 to 0.316 nM | Cc1cccc(-c2nccc(Nc3ccnc(Nc4ccc(CN5CCCC(C(=O)OC6CCNCC6)C5)cc4)n3)n2)n1 (stereo not shown) [Compound 383, 4-piperidyl 1-[[4-[[4-[[2-(6-methyl-2-pyridyl)pyrimidin-4-yl]amino]pyrimidin-2-yl]amino]phenyl]methyl] piperidine-3-carboxylate] | 25.1 to 158 nM
10 | 0.0398 to 0.316 nM | Cc1cccc(-c2nccc(Nc3ccnc(Nc4ccc(CN5CCC(C(=O)O)C5)cc4)n3)n2)n1 (stereo not shown) [Compound 124, 1-[[4-[[4-[[2-(6-methyl-2-pyridyl)pyrimidin-4-yl]amino]pyrimidin-2-yl]amino]phenyl]methyl] pyrrolidine-3-carboxylic acid] | 25.1 to 158 nM
11 | 0.0398 to 0.316 nM | Cc1cccc(-c2nccc(Nc3ccnc(Nc4ccc(CN5CCC(C(=O)OC6CNC6)C5)cc4)n3)n2)n1 (stereo not shown) [Compound 50, azetidin-3-yl 1-[[4-[[4-[[2-(6-methyl-2-pyridyl)pyrimidin-4-yl]amino]pyrimidin-2-yl]amino]phenyl]methyl] pyrrolidine-3-carboxylate] | 25.1 to 158 nM
